Data set [1] deals with T1, human MCHR1 (Homo sapiens, UniProt Q99705).
T1 construct: The full-length cDNA for human MCHR1 was cloned from a human adult brain cDNA library; expressed in transfected cells; host or cells: AV12 cells previously transfected with Gα15
The experiment in a line: 125I-MCH competitive binding assay (SPA) with clone 43 membranes. The conditions noted are these: competition with 125I-MCH, clone 43 membranes (AV12 cells expressing human MCHR1); Ki from IC50 by Cheng-Prusoff; tested in duplicate. An excerpt: (§1) The full-length cDNA for human MCHR1 was cloned from a human adult brain cDNA library (Edge Biosystems, Cat. 38356) by standard polymerase chain reaction (PCR) methodology employing the following primers: sense, 5′-GCCACCATGGACCT GGAAGCCTCGCTGC-3′; anti-sense, 5′-[…]-3′.
(§2) In order to generate cell lines stably expressing MCHR1, the insert was then subcloned into the Xba I and Not I sites of pcDNA(+)-3.1-neomycin (Invitrogen). After purification by Qiagen Maxi-prep kit (QIAGEN, Inc.), the plasmid was transfected by Fugene 6 (Roche Applied Science) into AV12 cells that had been previously transfected with the promiscuous G protein Gα15. The transfected cells were selected by
(§3) Both the ^125I-MCH binding and functional GTPγ^35S binding assays employed membranes isolated from a clone designated as clone 43. Typically, cells from 20 confluent T225 flasks were processed by washing the monolayers in cold phosphate-buffered saline (PBS), scraping the cells into same and re-suspending the cell pellet in 35 ml of 250 mM Sucrose, 50 mM HEPES, pH 7.5, 1 mM MgCl2, 24 μg/ml DNase I, and protease inhibitors (1 Complete® tablet, per 50 ml of buffer prepared, Roche Diagnostics). After incubation on ice for 5 min, cells were disrupted with 20–25 strokes of a Teflon/Glass homogenizer attached to an overhead motorized stirrer, and the homogenate was centrifuged at 40,000 rpm in Beckman Type 70.1 Ti rotor. The pellets were re-suspended in 250 mM Sucrose, 50 mM HEPES, pH 7.5, 1.5 mM CaCl2, 1 mM MgSO4 and protease inhibitors by Teflon/Glass homogenization to achieve a protein concentration of ˜3–5 mg/ml (Pierce BCA assay with Bovine serum albumin as standard).
Aliquots were stored at −70° C. Binding of compounds to MCHR1 was assessed in a competitive binding assay employing ^125I-MCH, compound and clone 43 membranes. Briefly, assays are carried out in 96-well Costar 3632 white opaque plates in a total volume of 200 μl containing 25 mM HEPES, pH 7.5, 10 mM CaCl2, 2 mg/ml bovine serum albumin, 0.5% dimethyl sulfoxide (DMSO), 4 μg of clone 43 membranes, […] ^125I-MCH (NEN), 1.0 mg of wheat germ agglutinin scintillation proximity assay beads (WGA-SPA beads, Amersham) and a graded dose of test compound. Non-specific binding is assessed in the presence of 1 μM unlabeled MCH. Bound ^125I-MCH is determined by placing sealed plates in a Microbeta Trilux (Wallac) and counting after a 5 hr delay.
IC50 values (defined as the concentration of test compound required to reduce specific binding of ^125I-MCH by 50%) are determined by fitting the concentration-response data to a 4-parameter model (max response, min response, Hill coefficient, IC50) using Excel. Ki values are calculated from IC50 values using the Cheng-Prusoff approximation as described by Cheng et al. (Relationship between the inhibition constant (Ki) and the concentration of inhibitor which causes 50% inhibition (IC50) of an enzymatic reaction, Biochem. Pharmacol., 22: 3099–3108 (1973)). The Kd for ^125I-MCH is determined independently from a saturation binding isotherm.

For data set [2], the target named is T1, human MCHR1. The experiment in a line: Inhibition of MCH-stimulated GTPγ35S binding to clone 43 membranes (functional antagonism). To be noted: inhibition of GTPγ35S binding stimulated by 40 nM MCH (about EC90), Kb from IC50 by modified Cheng-Prusoff (Leff and Dougal), tested in duplicate. It is filed as biochemical.
Description: as §1, §2, §3
Functional antagonism of MCH activity is assessed by measuring the ability of test compound to inhibit MCH-stimulated binding of GTPγ^35S to clone 43 membranes. Briefly, assays are carried out in Costar 3632 white opaque plates in a total volume of 200 μl containing 25 mM Hepes, pH 7.5, 5 mM MgCl2, 10 μg/ml saponin, 100 mM NaCl, 3 μM GDP, 0.3 nM GTPγ^35S, 40 nM MCH (approximately equal to EC90), 20 μg of clone 43 membranes, 1.0 mg of wheat germ agglutinin scintillation proximity assay beads (WGA-SPA beads, Amersham) and a graded dose of test compound. The plates are sealed and left for 16–18 hrs at 4° C. After a 1 hr delay to allow plates to equilibrate to ambient temperature, bound GTPγ^35S is determined by counting in a Microbeta Trilux (Wallac).
IC50 values (defined as the concentration of test compound required to reduce MCH-stimulated GTPγ^35S binding by 50%) are determined by fitting the concentration-response data to a 4-parameter model (max response, min response, Hill coefficient, IC50) using Excel. Kb values are calculated from IC50 values using a modification of the Cheng-Prusoff approximation as described by Leff and Dougal (Further concerns over Cheng-Prusoff analysis, Trends Pharmacol. Sci. 14: 110–112 (1993)) after verifying competitive antagonism by Schild analysis. The EC50 for MCH alone is determined independently. The MCHR1 binding and functional activities of 24 compounds in the oxadiazole series (tested in duplicate) are shown in Table 1

T1 sequence (Q99705 whole entry): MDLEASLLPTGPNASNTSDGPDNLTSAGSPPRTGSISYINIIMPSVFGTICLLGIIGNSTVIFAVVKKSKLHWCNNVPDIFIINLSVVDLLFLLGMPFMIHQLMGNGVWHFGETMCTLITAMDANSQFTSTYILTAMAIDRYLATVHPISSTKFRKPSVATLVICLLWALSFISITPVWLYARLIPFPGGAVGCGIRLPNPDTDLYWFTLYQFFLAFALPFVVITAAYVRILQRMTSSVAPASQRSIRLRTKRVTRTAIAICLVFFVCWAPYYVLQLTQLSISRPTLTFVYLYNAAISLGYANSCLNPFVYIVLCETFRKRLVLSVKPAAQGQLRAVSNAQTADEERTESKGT

Consider `CC(C)N(CCCCOc1ccc(-c2nnc(CSCCOc3ccccc3)o2)cc1)C(C)C` [drawing 59], for which the affinity at human MCHR1 [1], expressed as Ki, was 0.0633 µM. Further, the Kb (in general, the equilibrium dissociation constant of an antagonist, usually derived from a functional assay) on human MCHR1 [2] was 0.0521 µM.

Consider `O=C(NCCN1CCCCC1)Nc1ccc(-c2nnc(CSCCOc3ccccc3)o2)cc1` [drawing 42], for which, on human MCHR1 [1], the affinity corresponds to a Ki of 0.0056 µM. The molecule further gave an antagonist dissociation constant (Kb) at human MCHR1 [2] of 0.0147 µM.

In the case of `c1ccc(OCCSCc2ncc(-c3ccc(OCCN4CCCC4)cc3)o2)cc1`, the Ki (as a rule, the equilibrium dissociation constant of an inhibitor or competing ligand from its target) on human MCHR1 [1] came to 0.0058 µM. In addition, the antagonist dissociation constant (Kb) on human MCHR1 [2] came out at 0.012 µM.

At human MCHR1 [1], `CN(C)C/C=C/c1ccc(-c2nnc(CSCCOc3ccccc3)o2)cc1` had a Ki of 0.0037 µM. For the same molecule, on human MCHR1 [2], the Kb was 0.0116 µM.

In the case of `CN(C)CCCOc1ccc(-c2cnc(CSCCOc3ccccc3)o2)cc1`, the inhibitory constant (Ki) on human MCHR1 [1] was 0.0043 µM. In addition, the antagonist equilibrium constant (Kb) on human MCHR1 [2] was determined as 0.015 µM.

Molecule `CN(C)CCCOc1ccc(-c2coc(CSCCOc3ccccc3)n2)cc1` registered a Ki on human MCHR1 [1] of 0.035 µM. Also, the Kb at human MCHR1 [2] was found to be 0.0415 µM.

As for `c1ccc(OCCSCc2ncc(-c3ccc(OCCCN4CCCCC4)cc3)o2)cc1`, at human MCHR1 [1], the Ki is 0.0179 µM. The same molecule registered an antagonist equilibrium constant (Kb) at human MCHR1 [2] of 0.0159 µM.

At human MCHR1 [1], `CN1CCC[C@@H]1CCOc1ccc(-c2nnc(CSCCOc3ccccc3)o2)cc1` gave a Ki of 0.0129 µM. For the same molecule, the Kb on human MCHR1 [2] was determined as 0.0396 µM.

As to `c1ccc(OCCSCc2nnc(-c3ccc(OCCN4CCCCC4)cc3)o2)cc1` [drawing 45], affinity at human MCHR1 [1] was put at a Ki of 0.0092 µM. Besides, the Kb at human MCHR1 [2] was found to be 0.0198 µM.

For the molecule `CN(C)CCCOc1ccc(-c2nnc(CSCc3cc4ccccc4o3)o2)cc1`, on human MCHR1 [1], the inhibition constant (Ki) stood at 0.0161 µM. Moreover, the Kb on human MCHR1 [2] amounted to 0.0354 µM.

`CN(C)CCCOc1ccc(-c2nnc(CSCc3ccc4ccccc4c3)o2)cc1` had a Ki at human MCHR1 [1] of 0.0224 µM. The molecule also had a Kb at human MCHR1 [2] of 0.0506 µM.

For the molecule `CN(C)CCOc1ccc(-c2cnc(CSCCOc3ccccc3)o2)cc1`, the Ki on human MCHR1 [1] was 0.0133 µM. Further, on human MCHR1 [2], the Kb was determined as 0.0094 µM.

Take `CN(C)CCCOc1ccc(-c2nnc(CSCCOc3ccccc3)o2)cc1` [drawing 52]: the Ki on human MCHR1 [1] came to 0.016 µM. The molecule further yielded a Kb on human MCHR1 [2] of 0.0119 µM.

`CN(C)CCCOc1ccc(-c2nnc(CSCc3cc4ccccc4s3)o2)cc1` had a Ki on human MCHR1 [1] of 0.0484 µM. This molecule also gave a Kb on human MCHR1 [2] of 0.139 µM.

Take `O=C(NCCN1CCCC1)Nc1ccc(-c2nnc(CSCCOc3ccccc3)o2)cc1`: affinity at human MCHR1 [1] was put at a Ki of 0.009 µM. The antagonist dissociation constant (Kb) on human MCHR1 [2] is 0.02 µM.

`c1ccc(OCCSCc2ncc(-c3ccc(OCCN4CCCCC4)cc3)o2)cc1` came in with a Ki on human MCHR1 [1] of 0.0116 µM. Also, the antagonist equilibrium constant (Kb) on human MCHR1 [2] was 0.0073 µM.

For the molecule `CN(C)CCCOc1ccc(-c2nnc(CSCCOc3cccc4ccccc34)o2)cc1` [Example 278, [3-(4-{5-[2-(1-naphthoxy)-ethylsulfanylmethyl]-[1,3,4]oxadiazol-2-yl}-phenoxy)-propyl]-dimethyl-amine], the melting point (as a rule, the temperature of the solid-liquid transition) is 101 to 102 °C.

As for `O=C1CCN(CCCOc2ccc(-c3nnc(CSCCOc4ccccc4)o3)cc2)CC1` [Example 260, 1-(3-{4-[5-(2-Phenoxy-ethylsulfanylmethyl)-[1,3,4]oxadiazol-2-yl]-phenoxy}-propyl)-piperidin-4-one], the melting point is 55 to 57 °C.

Consider `CN(C)CCCOc1ccc(-c2nnc(CSCCOc3ccccc3OC(F)(F)F)o2)cc1` [Example 275, [3-(4-{5-[2-(2-trifluoromethoxy-phenoxy)-ethylsulfanylmethyl]-[1,3,4]oxadiazol-2-yl}-phenoxy)-propyl]-dimethyl-amine], for which the melting point was in the range of 55 to 55.5 °C.

`CN(C)CCCCNC(=O)c1cccc(-c2nnc(CSCCOc3ccccc3)o2)c1` [Example 61, N-(4-dimethylamino-butyl)-3-[5-(2-phenoxy-ethylsulfanylmethyl)-[1,3,4]oxadiazol-2-yl]-benzamide] had a melting point of 38 to 42 °C.

`c1ccc(OCCSCc2nnc(-c3ccc(OCCCCN4CCCCC4)cc3)o2)cc1` [Example 81, 1-(4-{4-[5-(2-phenoxy-ethylsulfanylmethyl)-[1,3,4]oxadiazol-2-yl]-phenoxy}-butyl)-piperidine] yielded a melting point of 57 to 62 °C.

Molecule `c1ccc(OCCSCc2ncc(-c3ccc(OCCCN4CCCCCC4)cc3)o2)cc1` [Example 266, 1-(3-{4-[2-(2-phenoxy-ethylsulfanylmethyl)-oxazol-5-yl]-phenoxy}-propyl)-azepane] came in with a melting point of 32 to 35 °C.

The molecule `c1ccc(OCCSCc2nnc(-c3ccc(OCCCN4CCC4)cc3)o2)cc1` [Example 263, 2-[4-(3-azetidin-1-yl-propoxy)-phenyl]-5-(2-phenoxy-ethylsulfanylmethyl)-[1,3,4]oxadiazole] returned a melting point of 60 °C.

`COc1cc(-c2nnc(CSCCOc3ccccc3)o2)cc(OC)c1OCCCN(C)C.O=C(O)/C=C\C(=O)O` [Example 285, (3-{2,6-dimethoxy-4-[5-(2-phenoxy-ethylsulfanylmethyl)-[1,3,4]oxadiazol-2-yl]-phenoxy}-propyl)-dimethyl-amine; maleic acid salt] had a melting point of 103 to 104 °C.

As for `CN(C)CCCOc1ccc(-c2nnc(CSCCOc3ccccc3)n2-c2ccccc2)cc1.O=C(O)C(=O)O` [Example 247, Dimethyl-(3-{4-[5-(2-phenoxy-ethylsulfanylmethyl)-4-phenyl-4H-[1,2,4]triazol-3-yl]-phenoxy}-propyl)-amine, oxalic acid salt], the melting point was in the range of 120 to 123 °C.

The molecule `CN(C)CCCOc1ccc(-c2nnc(CSCCOc3ccccc3)o2)cc1F.O=C(O)/C=C\C(=O)O` [Example 287, (3-{2-fluoro-4-[5-(2-phenoxy-ethylsulfanylmethyl)-[1,3,4]oxadiazol-2-yl]-phenoxy}-propyl)-dimethyl-amine; maleic acid salt] yielded a melting point of 70 to 72 °C.

As for `CN(C)CCCOc1ccc(-c2nnc(CSCCOc3ccccc3)s2)cc1` [Example 59, Dimethyl-(3-{4-[5-(2-phenoxyethylsulfanylmethyl)-[1,3,4]thiadiazol-2-yl]-phenoxy}-propyl)-amine], the melting point was in the range of 72 to 73 °C.

On to `CN(C)CCCOc1ccc(-c2nnc(CSCCOc3ccccc3)o2)nc1` [Example 289, dimethyl-(3-{6-[5-(2-phenoxy-ethylsulfanylmethyl)-[1,3,4]oxadiazol-2-yl]-pyridin-3-yloxy}-propyl)-amine], for which the melting point lay within 47 to 49 °C.

For `CN(C)CCCOc1ccc(-c2nnc(CSCCOc3ccc(OC(F)(F)F)cc3)o2)cc1` [Example 274, [3-(4-{5-[2-(4-trifluoromethoxy-phenoxy)-ethylsulfanylmethyl]-[1,3,4]oxadiazol-2-yl}-phenoxy)-propyl]-dimethyl-amine], the melting point was in the range of 92.5 to 93.5 °C.

Regarding `NCCCOc1ccc(-c2nnc(CSCCOc3ccccc3)o2)cc1` [Example 84, 3-{4-[5-(2-phenoxy-ethylsulfanylmethyl)-[1,3,4]oxadiazol-2-yl]-phenoxy}-propylamine], the melting point fell in the range of 30 to 35 °C.
